Data from patent US20100249248A1, “LIGAND AGENTS FOR PEROXISOME PROLIFERATOR-ACTIVATED RECEPTORS (PPARs)” (Suntory Holdings Limited, priority 2007, published 2010).
“And” between values parts separate entries of the source, which are not always exact repeats. Equal values may be shown once.

Experiments:
Type in all cases: cell-based
PPARγ = biological target: T1, PPARγ (Rattus norvegicus, UniProt O88275); experiment: PPARγ ligand activity, PPRE-luciferase reporter in CHO/PPARγ/PPRE cells; settings: Table 4; positive control run beside each sample; 25 μM
T1 construct: expressed in transfected cells
T1 sequence (O88275 1-505): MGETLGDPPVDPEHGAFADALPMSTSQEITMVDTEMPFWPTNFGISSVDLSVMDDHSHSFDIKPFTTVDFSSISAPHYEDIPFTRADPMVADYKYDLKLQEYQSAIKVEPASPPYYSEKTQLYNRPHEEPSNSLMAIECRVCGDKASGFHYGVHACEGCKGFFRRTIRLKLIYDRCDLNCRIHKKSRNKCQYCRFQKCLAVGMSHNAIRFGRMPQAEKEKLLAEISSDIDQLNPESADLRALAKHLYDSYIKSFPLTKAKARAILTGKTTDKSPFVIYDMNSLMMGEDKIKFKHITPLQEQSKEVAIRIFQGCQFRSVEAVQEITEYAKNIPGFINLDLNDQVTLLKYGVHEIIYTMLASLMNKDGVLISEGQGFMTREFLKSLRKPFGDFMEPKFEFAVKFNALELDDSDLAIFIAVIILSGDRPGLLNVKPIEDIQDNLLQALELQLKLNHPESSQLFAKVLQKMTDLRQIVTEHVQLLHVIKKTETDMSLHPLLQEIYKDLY
Description: CHO cells used for measurement of PPARγ ligand activity were obtained in the following manner.
A PPAR reporter plasmid (pPPRE-Luc) was derived from a reporter plasmid, pGL3 (Promega), which contains the SV40 promoter gene and the firefly luciferase gene by being modified to have 3 copies of a PPAR-responsive sequence (PPRE) upstream of the SV40 promoter gene. A PPARγ expression plasmid (pKD-rPPARγ) was obtained by inserting the rat PPARγ gene into an SV40 promoter-driven expression plasmid for mammalian cells. pPPRE-Luc and pKD-rPPARγ were co-transfected into CHO(dhfr-) cells (dihydrofolate reductase-deficient cell line of Chinese hamster ovary cells) using Lipofectamine (Invitorgen). The cells were cultured in D-MEM medium (GIBCO) almost free from thymidine and containing dialyzed fetal bovine serum (GIBCO) to thereby obtain a stable transformant (CHO/PPARγ/PPRE) retaining pPPRE-Luc and pKD-rPPARγ.
The above cells were seeded in 96-well culture plates at 1×10^4 cells/well and cultured at 37° C. under 5% CO2 for 24 hours. […] After washing with phosphate-buffered saline (PBS-), the cells were lysed with a cytolysis solution (Cell Culture Lysis Reagent: Promega) and measured for the luminescence intensity of luciferase with a multilabel counter (Wallac) in the presence of a Luciferase Assay Reagent (Promega). […]

PPARδ = biological target: T2, PPARδ (Mus musculus, UniProt P35396); experiment: PPARδ ligand activity, GAL4::mPPARδ luciferase reporter assay in HepG2 cells
T2 construct: expressed in transfected cells; host or cells: HepG2 cells (human liver cancer-derived)
T2 sequence (P35396 1-440): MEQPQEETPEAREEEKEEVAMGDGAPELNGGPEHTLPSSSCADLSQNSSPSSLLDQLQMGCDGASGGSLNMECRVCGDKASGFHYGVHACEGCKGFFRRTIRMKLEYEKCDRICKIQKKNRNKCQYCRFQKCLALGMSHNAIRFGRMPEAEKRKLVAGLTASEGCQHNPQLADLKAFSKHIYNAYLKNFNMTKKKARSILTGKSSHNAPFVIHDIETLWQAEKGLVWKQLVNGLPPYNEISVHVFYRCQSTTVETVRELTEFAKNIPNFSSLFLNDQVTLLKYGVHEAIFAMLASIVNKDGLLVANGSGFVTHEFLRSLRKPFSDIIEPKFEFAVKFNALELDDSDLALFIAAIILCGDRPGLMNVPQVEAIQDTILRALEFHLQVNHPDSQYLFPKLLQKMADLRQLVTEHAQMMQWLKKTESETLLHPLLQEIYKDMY
Experimental: HepG2 cells (human liver cancer-derived cultured cells) were seeded in 96-well culture plates at 1×10^4 cells/well and cultured at 37° C. under 5% CO2 for 24 hours. The medium used was RPMI1640 (Nissui Pharmaceutical Co., Ltd., Japan) containing 10% FBS (fetal bovine serum; Equitech-Bio) and 0.3 g/L L-Glutamine (Nissui Pharmaceutical Co., Ltd., Japan). These cells were washed with OPTI-MEM (Gibco) and then transfected with pBIND/GAL4::mPPARδ and pG51uc (Promega). […]
At about 24 hours after transfection, the medium was replaced with another medium containing a plant extract, followed by culturing for 24 hours. […] After washing with phosphate-buffered saline (PBS—), the cells were lysed with a cytolysis solution (Cell Culture Lysis Reagent: Promega) and measured for the luminescence intensity of luciferase with a multilabel counter (Wallac) in the presence of a Luciferase Assay Reagent (Promega). […] For assessment of ligand activity, the ratio of luminescence intensity in a sample to that in the control (vehicle control) was defined as the luminescence ratio of PPARδ ligand activity in the sample, and a sample showing a value of 1.3 or greater was determined as having PPARδ ligand activity.
The ethanol extract of each plant obtained in Sample Preparation Example 2 was measured for its PPARγ ligand activity in the same manner as shown in Example 1. […]

PPARα = biological target: T3, PPARα (Mus musculus, UniProt P23204); experiment: PPARα ligand activity, GAL4::mPPARα luciferase reporter assay in HepG2 cells; settings: Table 3; positive control run beside each sample; 25 μM
T3 construct: expressed in transfected cells; host or cells: HepG2 cells (human liver cancer-derived)
T3 sequence (P23204 1-468): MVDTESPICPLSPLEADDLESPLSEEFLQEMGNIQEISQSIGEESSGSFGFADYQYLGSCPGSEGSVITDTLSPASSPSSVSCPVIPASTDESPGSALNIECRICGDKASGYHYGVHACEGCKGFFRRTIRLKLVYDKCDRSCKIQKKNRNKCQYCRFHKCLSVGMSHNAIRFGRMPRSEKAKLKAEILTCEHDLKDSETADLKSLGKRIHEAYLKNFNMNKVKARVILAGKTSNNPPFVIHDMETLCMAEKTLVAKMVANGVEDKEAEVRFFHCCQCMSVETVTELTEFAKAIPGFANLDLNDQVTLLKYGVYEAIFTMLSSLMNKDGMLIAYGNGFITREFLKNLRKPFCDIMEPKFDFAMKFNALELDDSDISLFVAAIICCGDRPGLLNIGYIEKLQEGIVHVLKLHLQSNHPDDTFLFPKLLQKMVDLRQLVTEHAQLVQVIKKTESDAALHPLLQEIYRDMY
Experimental: HepG2 cells (human liver cancer-derived cultured cells) were seeded in 96-well culture plates at 1×10^4 cells/well and cultured at 37° C. under 5% CO2 for 24 hours. The medium used was RPMI1640 (Nissui Pharmaceutical Co., Ltd., Japan) containing 10% FBS (fetal bovine serum; Equitech-Bio) and 0.3 […] Pharmaceutical Co., Ltd., Japan). […] At about 24 hours after transfection, the medium was replaced with another medium containing a plant extract, followed by culturing for 24 hours. As a vehicle control, DMSO was used and added in 1/100 volume to the medium. After washing with phosphate-buffered saline (PBS-), the cells were lysed with a cytolysis solution (Cell Culture Lysis Reagent: Promega) and measured for the luminescence intensity of luciferase with a multilabel counter (Wallac) in the presence of a Luciferase Assay Reagent (Promega). On the other hand, a synthetic PPARδ agonist, L-165041 (Sigma, […]), was used as a positive control. […] On the other hand, a synthetic PPARα agonist, WY-14643 (Sigma, 25 μM), was used as a positive control.

Q: With CC1(COc2ccc(CC3SC(=O)NC3=O)cc2)CCCCC1 (stereo not shown) [Ciglitizone] as the compound, how does the “Luminescence ratio in Ciglitizone” value (PPARγ) read?
A: Its value is 2.2 and 2.5 and 2.6 and 2.7 and 3.0 and 2.4.

Q: What does the source list for CCCc1c(OCCCOc2ccc(OCC(=O)O)cc2)ccc(C(C)=O)c1O [L-165041]?
A: Luminescence ratio in L-165041 (PPARδ; Table 5, positive control run beside each ethanol extract): 4.5 and 4.9 and 6.1 and 6.2 and 5.2 and 4.8 and 4.7; Luminescence ratio in L-165041 (PPARδ; Table 6, positive control run beside each hot water extract): 4.5 and 3.8 and 6.2 and 5.8

Q: Which “Luminescence ratio in WY-14643” value (PPARα) does the source give for Cc1cccc(Nc2cc(Cl)nc(SCC(=O)O)n2)c1C [WY-14643] here?
A: The value was 4.2 and 4.4 and 7.6.
